Assay results: US20220168325A1, “METHODS TO PROMOTE CEREBRAL BLOOD FLOW IN THE BRAIN” (THE UNIVERSITY OF VERMONT, priority 2019, published 2022)

Legend:
[1] = tested on: capillary-to-arteriole electrical signaling; assay: Ex vivo capillary-parenchymal arteriole (CaPA) preparation: upstream arteriolar dilation to 10 mM K+ on capillaries; design: species or system C57BL/6J mouse
Source text: Ex Vivo Capillary-Parenchymal Arteriole Preparation. The capillary-parenchymal arteriole (CaPA) preparation was obtained by dissecting parenchymal arterioles arising from the M1 region of the middle cerebral artery, leaving the attached capillary bed intact, as reported recently (Longden et al, “Capillary K^+-Sensing Initiates Retrograde Hyperpolarization to Increase Local Cerebral Blood Flow,” Nat. Neurosci. 20:717-726 (2017), which is hereby incorporated by reference in its entirety). Precapillary arteriolar segments were cannulated on glass micropipettes on a Living Systems Instrumentation pressure myograph, with one end occluded by a tie. The ends of the capillaries were then sealed by the downward pressure of an overlying glass micropipette. Application of pressure (40 mmHg) to the cannulated parenchymal arteriole segment in this preparation pressurized the entire tree and induced myogenic tone in the parenchymal arteriole segment. With this preparation, 10 mM K^+ was applied onto capillaries by pressure ejection from a glass micropipette (tip diameter, ˜5 μm) attached to a Picospritzer III (Parker) at ˜5 psi for 18 s. Luminal diameter in parenchymal arterioles was acquired in one region of the arteriolar segment at 15 Hz using IonWizard 6.2 edge-detection software (IonOptix). Changes in arteriolar diameter were calculated from the average luminal diameter measured over the last 10 s of stimulation and were normalized to the maximum dilatory responses in 0 mM Ca^2+ bath solution at the end of each experiment.
Capillary Kir2.1 channels sense increases in [K^+]o caused by increased neuronal activity and initiate a hyperpolarizing signal. By virtue of strong electrical coupling between endothelial cells, retrograde hyperpolarization ascends to upstream feeding arterioles to enhance cerebral blood flow to the site of signal initiation (Longden et al, “Capillary K^+-Sensing Initiates Retrograde Hyperpolarization to Increase Local Cerebral Blood Flow,” Nat. Neurosci. 20:717-726 (2017), which is hereby incorporated by reference in its entirety). […] During this lag period, Kir2.1 currents recorded in the perforated-patch configuration declined steadily (τdecay≈12 minutes), but K^+-mediated retrograde dilatory signaling remained intact until Kir2.1 currents reached ˜50% of their maximal amplitude (FIG. 7C).

[2] = tested on: K+-evoked capillary hyperemia; assay: In vivo two-photon imaging of K+-evoked capillary RBC flux through cranial window; design: species or system C57BL/6J mouse
Kir2.1 channel [3] = molecular target: T1, Kir2.1 channel (Mus musculus, UniProt P35561); assay: Patch-clamp recording of Kir2.1 currents in freshly isolated brain capillary endothelial cells (cECs); conditions: perforated patch
T1 sequence (P35561 1-428): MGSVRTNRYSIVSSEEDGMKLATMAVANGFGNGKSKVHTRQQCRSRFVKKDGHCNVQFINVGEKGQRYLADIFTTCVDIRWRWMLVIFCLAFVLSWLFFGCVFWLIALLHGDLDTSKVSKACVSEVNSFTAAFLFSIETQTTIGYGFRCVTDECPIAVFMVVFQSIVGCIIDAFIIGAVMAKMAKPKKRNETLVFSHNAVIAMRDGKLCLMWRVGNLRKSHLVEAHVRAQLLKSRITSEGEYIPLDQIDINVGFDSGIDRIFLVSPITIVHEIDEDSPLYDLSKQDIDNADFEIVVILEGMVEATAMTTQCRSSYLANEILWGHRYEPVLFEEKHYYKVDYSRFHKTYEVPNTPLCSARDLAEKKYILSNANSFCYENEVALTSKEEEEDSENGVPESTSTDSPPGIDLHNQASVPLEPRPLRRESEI

functional hyperemia = assay: Whisker stimulation-induced functional hyperemia in vivo (laser Doppler flowmetry, somatosensory cortex); design: species or system TgNotch3^WT and TgNotch3^R169C mice; conditions: exogenous PIP2 (diC16-PIP2 systemically via femoral artery catheter), CADASIL model mice
[4] = tested on: capillary-to-arteriole electrical signaling; assay: Ex vivo CaPA preparation from transgenic mice: arteriolar tone and dilation to capillary 10 mM K+
intracerebral arterioles = assay: Luminal diameter of isolated pressurized parenchymal arterioles; design: species or system TgNotch3^WT and TgNotch3^R169C mice; conditions: bath soluble PIP2 10 μM; TgNotch3^WT and TgNotch3^R169C arterioles
Experimental: FIGS. 21A and 21B show typical recordings of luminal diameter of pressurized parenchymal arterioles from TgNotch3^WT (control) and TgNotch3^R169C (CADASIL) mice. NS309 and U46619 are used to test the ability of the arteriole to dilate and constrict, respectively. Bath application of soluble PIP2 at 10 μM has little effect on arteriole diameter.

Kir2.1 channel [5] = molecular target: T1, Kir2.1 channel; assay: Patch-clamp Ba2+-sensitive Kir2.1 current in cECs from transgenic mice; format: cell-based, TgNotch3^WT and TgNotch3^R169C mice; design: freshly isolated capillary endothelial cells from TgNotch3^WT and TgNotch3^R169C brains; endogenous in cells; host or cells: freshly isolated brain capillary endothelial cells from TgNotch3^WT and TgNotch3^R169C mice (FVB/N background); conditions: CADASIL cECs
[6] = bath-applied PGE2 1 μM or carbachol 10 μM

Molecule | Lag phase (X0) before inhibition of capillary-mediated arteriolar dilation [1, 6] | Time constant of postplateau exponential decay of K+-induced dilation (τdecay) [1, 6] | K+-induced upstream arteriolar vasodilation ([1]; bath-applied PGE2 1 μM or carbachol 10 μM, 10 mM K+ on capillaries) | Parenchymal arteriolar diameter ([1]; carbachol, FIGS. 8A-8D) | K+-induced increase in capillary RBC flux ([2]; carbachol 0.6 μg/kg intravascular, t=20 minutes after injection, 10 mM K+, saline controls 52±12%) | Baseline capillary RBC flux (before K+ application) ([2]; carbachol 0.6 μg/kg, over 30 minutes) | Kir2.1 current decline at X0 (12 minutes) (Kir2.1 channel [3]; carbachol 10 μM) | Time constant of exponential decay of Kir2.1 current (τdecay) (Kir2.1 channel [3]; PGE2 2 μM or carbachol 10 μM applied at t0) | Functional hyperemia in vivo (functional hyperemia) | Upstream arteriole response to 10 mM K+ on capillaries ([4]; CaPA from endothelial specific Kir2.1^-/- (Kir channel deficient) mice, HB-EGF or soluble PIP2 present) | Arteriolar dilation in response to capillary stimulation with 10 mM K+ ([4]; TgNotch3^R169C CaPA, 1 mM 4-AP, 30 ng/mL HB-EGF bath, or exogenous PIP2 bath) | Arteriole diameter (intracerebral arterioles) | Kir2-mediated current (Kir2.1 channel [5]; exogenous soluble PIP2 10 μM (diC16-PIP2, 20 minutes pre-incubation)) | Kir current (Kir2.1 channel [5]; intracellular soluble PIP2 via patch pipette (10 μM diC8-PIP2))
C[N+](C)(C)CCOC(N)=O [carbachol] | ≈ 12 minutes | ≈ 13 minutes | similarly suppressed | minimally altered parenchymal arteriolar diameter | 10±6% | did not change | ~58% | 8 min |  |  |  |  |  | 
phosphatidylinositol 4,5-bisphosphate [soluble PIP2] |  |  |  |  |  |  |  |  | restored | absence of effect | restored | little effect | increased Kir2-mediated current in cECs from CADASIL mice to values observed in control groups | counteracted the reduction in Kir current
